These results are taken from ChEMBL document CHEMBL5230116, “Recent developments of small molecules with anti-inflammatory activities for the treatment of acute lung injury” (Eur J Med Chem, 2020).

Series [1] deals with T1, 72 kDa type IV collagenase (Homo sapiens, UniProt P08253). Kind of series: Inhibition of recombinant human MMP-2 using QF24 as substrate incubated for 3 hrs by spectrofluorometer assay.
A further series concerns the target Neutrophil collagenase (Homo sapiens, UniProt P22894). Kind of series: Inhibition of recombinant human MMP-8 using QF24 as substrate incubated for 3 hrs by spectrofluorometer assay.
Series [2] in a line: Inhibition of LPS induced IL-6 expression in ICR mouse peritoneal macrophage at 10 uM incubated for 30 mins followed by LPS stimulation measured after 24 hrs by ELISA assay relative to control. Type of series: functional. The note with it: […].
A short description of series [3]: Inhibition of LPS induced TNF-alpha expression in ICR mouse peritoneal macrophage at 10 uM incubated for 30 mins followed by LPS stimulation measured after 24 hrs by ELISA assay relative to control. Type of series: functional. The note with it: […]. (In general: An ELISA detects its analyte on a solid surface through an enzyme-linked reagent.)
The subject of a further series is RAW264.7. Put plainly: Inhibition of NO production in LPS stimulated mouse RAW264.7 cells incubated for 1 hr by Griess reagent based assay. The note with it: RAW264.7, 1 h. Type of series: functional, cell-based. (Nitrite, measured by Griess reagent, commonly stands in for NO production.)
The nature of series [4]: Inhibition of IL-6 expression in LPS stimulated mouse RAW264.7 cells incubated for 1 hr by ELISA assay. The class given is functional, cell-based. The note with it: RAW264.7, 1 h.
A short description of series [5]: Inhibition of TNF-alpha expression in LPS stimulated mouse RAW264.7 cells incubated for 1 hr by ELISA assay. The class given is functional, cell-based. Conditions: RAW264.7, 1 h.
Series [6] concerns the target T1, 72 kDa type IV collagenase. Put plainly: Inhibition of MMP-2 (unknown origin).
The target of series [7] is Matrix metalloproteinase-9 (Homo sapiens, UniProt P14780). Kind of series: Inhibition of MMP-9 (unknown origin).
The nature of series [8]: Half life in rat at 3 mg/kg, po. Type of series: ADME, organism-based. The note with it: in vivo.
Series [9] can be described thus: Oral bioavailability in rat at 3 mg/kg. Type of series: ADME, organism-based. The note with it: in vivo.

Some results are limits rather than exact numbers.

T1 sequence (P08253 whole entry): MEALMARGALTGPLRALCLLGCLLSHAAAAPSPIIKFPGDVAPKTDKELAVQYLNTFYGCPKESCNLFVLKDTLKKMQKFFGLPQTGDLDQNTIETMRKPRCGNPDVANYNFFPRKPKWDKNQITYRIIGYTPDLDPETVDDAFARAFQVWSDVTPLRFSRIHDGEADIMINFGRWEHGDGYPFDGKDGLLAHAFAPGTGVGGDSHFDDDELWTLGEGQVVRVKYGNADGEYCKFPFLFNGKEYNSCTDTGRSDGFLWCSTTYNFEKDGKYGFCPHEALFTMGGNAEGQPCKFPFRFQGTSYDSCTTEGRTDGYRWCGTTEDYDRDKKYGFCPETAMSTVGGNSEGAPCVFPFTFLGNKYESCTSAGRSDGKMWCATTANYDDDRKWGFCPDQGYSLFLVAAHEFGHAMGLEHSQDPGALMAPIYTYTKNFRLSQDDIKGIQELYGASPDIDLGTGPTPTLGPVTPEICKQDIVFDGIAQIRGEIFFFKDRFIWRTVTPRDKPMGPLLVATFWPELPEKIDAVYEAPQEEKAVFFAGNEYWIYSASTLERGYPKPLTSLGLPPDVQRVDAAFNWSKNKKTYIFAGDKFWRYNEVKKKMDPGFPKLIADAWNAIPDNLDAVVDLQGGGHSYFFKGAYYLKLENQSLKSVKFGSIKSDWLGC
Neutrophil collagenase, sequence (P22894 whole entry): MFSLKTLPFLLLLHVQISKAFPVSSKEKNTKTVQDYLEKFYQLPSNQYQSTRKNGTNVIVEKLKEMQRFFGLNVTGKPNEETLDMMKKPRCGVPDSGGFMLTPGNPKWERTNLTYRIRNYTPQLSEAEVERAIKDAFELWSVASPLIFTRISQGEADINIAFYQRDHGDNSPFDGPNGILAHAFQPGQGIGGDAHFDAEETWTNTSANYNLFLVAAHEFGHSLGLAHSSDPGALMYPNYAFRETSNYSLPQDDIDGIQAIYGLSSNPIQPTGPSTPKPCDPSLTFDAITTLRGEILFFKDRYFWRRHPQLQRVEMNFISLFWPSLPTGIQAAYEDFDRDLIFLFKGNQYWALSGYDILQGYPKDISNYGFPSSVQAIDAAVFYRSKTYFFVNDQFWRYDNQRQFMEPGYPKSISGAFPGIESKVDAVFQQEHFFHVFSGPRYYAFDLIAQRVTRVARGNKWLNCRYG
Matrix metalloproteinase-9, sequence (P14780 whole entry): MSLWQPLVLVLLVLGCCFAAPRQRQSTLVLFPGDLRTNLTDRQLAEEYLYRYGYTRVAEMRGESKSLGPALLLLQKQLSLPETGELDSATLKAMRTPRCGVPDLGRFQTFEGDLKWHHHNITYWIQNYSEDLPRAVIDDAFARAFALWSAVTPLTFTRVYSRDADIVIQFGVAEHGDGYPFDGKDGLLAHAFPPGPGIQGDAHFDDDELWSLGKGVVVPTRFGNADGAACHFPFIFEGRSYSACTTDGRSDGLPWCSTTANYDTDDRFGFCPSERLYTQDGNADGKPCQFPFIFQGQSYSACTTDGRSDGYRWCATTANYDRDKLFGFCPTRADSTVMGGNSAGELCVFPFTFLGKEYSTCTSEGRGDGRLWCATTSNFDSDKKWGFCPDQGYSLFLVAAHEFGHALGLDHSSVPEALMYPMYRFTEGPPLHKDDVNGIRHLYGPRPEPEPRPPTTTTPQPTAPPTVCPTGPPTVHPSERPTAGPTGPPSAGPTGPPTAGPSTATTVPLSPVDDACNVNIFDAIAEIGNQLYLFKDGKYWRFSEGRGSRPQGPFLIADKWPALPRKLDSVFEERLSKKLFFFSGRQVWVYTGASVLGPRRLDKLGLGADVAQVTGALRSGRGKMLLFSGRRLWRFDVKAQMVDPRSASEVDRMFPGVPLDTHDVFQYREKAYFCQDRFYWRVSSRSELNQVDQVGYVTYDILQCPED

Turning to `O=C(CCN1CCN(Cc2ccccc2)CC1)Nc1nc(-c2ccccc2)cs1`, the IC50 (as a rule, the concentration that inhibits the measured activity by half) in series [1] came to 10.2 µM; at Neutrophil collagenase, 11.9 µM.
`COc1cc(/C=C2\Cc3ccc(O)cc3C2=O)ccc1O`: the results for the inhibition at 10 µM in series [2] and in [3] were 69.3% and 83.7%, respectively.
With `CCCc1nn(C)c2c(NCCCN3CCOCC3)nc(/C=C/c3cc(OC)c(OC)c(OC)c3)nc12`, the IC50 in the series on RAW264.7 is 2.64 µM; in [4] it was 4.38 µM; in [5] it was 5.63 µM.
For the molecule `CCCOc1cccc2c1C(=O)/C(=C/c1ccc(O)c(OC)c1)C2`, the inhibition (commonly the percentage by which the read-out fell short of the control) at 10 µM in series [2] was found to be 84.9%; in series [3] it was 72%.
As to `O=C(CN1CCN(c2ccccc2)CC1)Nc1nc(-c2ccc(F)cc2)cs1`, the half-maximal inhibitory concentration (IC50) turned out to be 4.22 µM in series [1] and 2.34 µM on Neutrophil collagenase.
For the molecule `COc1cc(/C=C2\Cc3cc(OC)c(OC)cc3C2=O)ccc1O`, the inhibition at 10 µM worked out at 81.4% in [2] and 79.3% in [3].
Regarding `O=C1NC(=O)C(O)(CC(=O)c2ccc(NS(=O)(=O)c3ccc(C(F)(F)F)cc3)cc2)C(=O)N1`, the IC50 in [6] was 0.00235 µM; in [7] it was 0.00824 µM.
With `Cc1coc2c1C(=O)c1c3c-2ccc2c3c(n1Cc1ccccc1)C(=O)CC2(C)C`, the half-life – broadly, the time in which the quantity being followed falls by half – in series [8] is 4.05 h. Further, the bioavailability (as a rule, dose-corrected exposure relative to a reference, in per cent) in [9] was found to be 30.2%.
For `Cc1coc2c1C(=O)C(=O)c1c-2ccc2c1CCCC2(C)C` [TANSHINONE IIA] the same measures were 0.34 h and < 3.5%.
